Measured values reported in the supplement of paper PMC11061612.

Columns and labels:
SK-N-DZ (Neuroblastoma) [1] = test: combination Emax (second highest fraction inhibited in the dose matrix, 72 h); higher = more inhibition; extreme values may be limits of the assay
Outline: (§1)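 Cell lines in DMEM/F12 or RPMI with 10% FBS were plated in 1536-well plates, held 24 hours at 37°C, 5% CO2, then given two-drug dose matrices for 72 hours (DMSO typically 0.2%). Viability was read by CellTiter-Glo 2.0 luminescence and scaled as inhibition from 0 (vehicle wells) to 1 (blank wells). Combination Emax is the second-highest inhibition in the matrix; Bliss excess is observed combination effect minus expected EA + EB − EA·EB, EA and EB being single-agent effects.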

[2] = tested on: TOV-21G (Ovarian Carcinoma); test: as above
Outline: as §1

[3] = tested on: BT-474 (Breast Carcinoma); test: as above
Outline: as §1

[4] = tested on: NCI-H2170 (Squamous Cell Lung Carcinoma); test: as above
Outline: as §1

[5] = tested on: L-363 (Plasma Cell Myeloma); test: as above
Outline: as §1

GCIY (Gastric Carcinoma) = test: as above
Outline: as §1

[6] = tested on: NCI-H2023 (Non-Small Cell Lung Carcinoma); test: as above
Outline: as §1

[7] = tested on: MDA-MB-175-VII (Breast Carcinoma); test: as above
Outline: as §1

[8] = tested on: NCI-H1048 (Small Cell Lung Carcinoma); test: as above
Outline: as §1

[9] = tested on: NCI-H1648 (Lung Adenocarcinoma); test: as above
Outline: as §1

[10] = tested on: SCC90 (Head and Neck Carcinoma); test: as above
Outline: as §1

HT-144 (Melanoma) = test: as above
Outline: as §1

[11] = tested on: JJN-3 (Plasma Cell Myeloma); test: Bliss excess, mean over the matrix (fraction); higher = more synergy
Outline: as §1

SK-N-DZ (Neuroblastoma) [12] = test: as above
Outline: as §1

A375 (Melanoma) = test: as above
Outline: as §1

[13] = tested on: GRANTA-519 (B-Cell Non-Hodgkin's Lymphoma); test: as above
Outline: as §1

[14] = tested on: NCI-H1048 (Small Cell Lung Carcinoma); test: as above
Outline: as §1

[15] = tested on: Daudi (Burkitt's Lymphoma); test: as above
Outline: as §1

[16] = tested on: RPMI-8402 (T-Lymphoblastic Leukemia); test: as above
Outline: as §1

[17] = tested on: SCC90 (Head and Neck Carcinoma); test: as above
Outline: as §1
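For Bliss excess, mean over the matrix in this document: after 72 h of two-drug dosing.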

Row | Compound | combination Emax (SK-N-DZ (Neuroblastoma) [1]) | combination Emax [2] | combination Emax [3] | combination Emax [4] | combination Emax [5] | combination Emax (GCIY (Gastric Carcinoma)) | combination Emax [6] | combination Emax [7] | combination Emax [8] | combination Emax [9] | combination Emax [10] | combination Emax (HT-144 (Melanoma)) | Bliss excess [11] | Bliss excess (SK-N-DZ (Neuroblastoma) [12]) | Bliss excess (A375 (Melanoma)) | Bliss excess [13] | Bliss excess [14] | Bliss excess [15] | Bliss excess [16] | Bliss excess [17]
1 | CC(=O)c1c(C)c2cnc(Nc3ccc(N4CCNCC4)cn3)nc2n(C2CCCC2)c1=O [Palbociclib] + Cc1c2c(nn1C)CSCc1cc(n(C)n1)CSc1cc(c3ccccc3c1)OCCCc1c(C(=O)O)n(C)c3c-2c(Cl)ccc13 [AZD5991] (first compound max 10 µM, 7x7, partner max 1 µM) | 0.55 | 0.488 | 0.497 | 0.389 | 0.994 | 0.2 | 0.234 | 0.249 | 0.65 | 0.406 | 0.965 | 0.972 | -0.0434 | 0.0655 | -0.0057 | 0.0039 | -0.0904 | 0.0059 | 0.0046 | -0.0224
2 | CC1(C)CCC(CN2CCN(c3ccc(C(=O)NS(=O)(=O)c4ccc(NCC5CCOCC5)c([N+](=O)[O-])c4)c(Oc4cnc5[nH]ccc5c4)c3)CC2)=C(c2ccc(Cl)cc2)C1 [Venetoclax] + CN(C)CCCOc1ccc(-c2ccc3ncc4c(c3c2)n(C2CCOCC2)c(=O)n4C)cn1 [AZD0156] (first compound max 1 µM, 7x7, partner max 1 µM) | 0.256 | 0.18 | 0.175 | 0.243 | 0.867 | 0.403 | 0.338 | 0.174 | 0.178 | 0.267 | 0.324 | 0.217 | 0.0008 | 0.013 | -0.003 | 0.0334 | 0.0016 | -0.0194 | 0.0022 | 0.0217
3 | Cc1c2c(nn1C)CSCc1cc(n(C)n1)CSc1cc(c3ccccc3c1)OCCCc1c(C(=O)O)n(C)c3c-2c(Cl)ccc13 [AZD5991] + CCN(CCO)CCCOc1ccc2c(Nc3cc(CC(=O)Nc4cccc(F)c4)[nH]n3)ncnc2c1 [AZD2811] (first compound max 1 µM, 7x7, partner max 1 µM) | 0.293 | 0.4 | 0.442 | 0.655 | 1 | 0.449 | 0.333 | 0.288 | 1 | 0.748 | 0.908 | 0.927 | 0.0225 | 0.043 | 0.0227 | 0.109 | 0.0766 | 0.263 | 0.0412 | 0.081
4 | CN(C)CCCOc1ccc(-c2ccc3ncc4c(c3c2)n(C2CCOCC2)c(=O)n4C)cn1 [AZD0156] + O=C(c1cc(Cc2n[nH]c(=O)c3ccccc23)ccc1F)N1CCN(C(=O)C2CC2)CC1 [Olaparib] (first compound max 3 µM, partner max 3 µM) | 0.373 | 0.282 | 0.27 | 0.437 | 0.356 | 0.418 | 0.369 | 0.198 | 0.352 | 0.396 | 0.138 | 0.381 | 0.0264 | -0.0533 | 0.0591 | 0.0079 | 0.0772 | 0.0672 | 0.244 | -0.0621
5 | COc1nnc2ccc(N3CCC(c4ccc(OCCN5CCN(C)C(=O)[C@H]5C)cc4)CC3)nn12 [AZD5153] + Cc1c2c(nn1C)CSCc1cc(n(C)n1)CSc1cc(c3ccccc3c1)OCCCc1c(C(=O)O)n(C)c3c-2c(Cl)ccc13 [AZD5991] (first compound max 1 µM, 7x7, partner max 1 µM) | 0.751 | 0.744 | 0.912 | 0.636 | 0.994 | 0.538 | 0.47 | 0.553 | 0.627 | 0.818 | 0.9 | 0.978 | -0.0268 | -0.0117 | -0.0215 | -0.0164 | 0.0059 | 0.0407 | 0.0279 | 0.0814
6 | CN(C)CCCOc1ccc(-c2ccc3ncc4c(c3c2)n(C2CCOCC2)c(=O)n4C)cn1 [AZD0156] + CCN(CCO)CCCOc1ccc2c(Nc3cc(CC(=O)Nc4cccc(F)c4)[nH]n3)ncnc2c1 [AZD2811] (first compound max 1 µM, 7x7, partner max 1 µM) | 0.391 | 0.266 | 0.0605 | 0.656 | 0.192 | 0.378 | 0.252 | 0.208 | 0.547 | 0.214 | 0.231 | 0.232 | 0.09 | 0.0526 | -0.0112 | 0.0447 | -0.0053 | 0.107 | -0.0022 | -0.0021
7 | CN(CCO)CC[C@H](CSc1ccccc1)Nc1ccc(S(=O)(=O)NC(=O)c2ccc(N3CCC([C@@H](O)c4ccccc4-c4ccc(Cl)cc4)CC3)cc2)cc1S(=O)(=O)C(F)(F)F [AZD4320] + CN(C)CCCOc1ccc(-c2ccc3ncc4c(c3c2)n(C2CCOCC2)c(=O)n4C)cn1 [AZD0156] (first compound max 1 µM, 7x7, partner max 1 µM) | 0.697 | 0.209 | 0.211 | 0.613 | 0.263 | 0.554 | 0.22 | 0.224 | 0.622 | 0.55 | 0.496 | 0.219 | 0.0142 | 0.0238 | -0.0357 | 0.007 | 0.0406 | -0.0133 | 0.0188 | 0.0037
